Experimental data from ChEMBL document CHEMBL3430912, “GSK Tres Cantos Anti-Kinetoplastid Screening (TCAKS) Data”.
pIC50: −log10 of the molar value.

Assays:
Leishmania donovani [1] = assay: (§1) GSK_TCAKS: pIC50 Leishmania donovani Imaging: THP-1 Host Macrophages. Assay plates (384-well) were prepared by adding 250nL of compound to each well. For single shot assay, the final compound concentration was 5 uM. […] Automated image analysis was performed with a script developed on Acapella High Content Imaging and Analysis Software (PerkinElmer). Output: THP-1 cell count were reported for each well.; format: functional, organism-based, Homo sapiens
Trypanosoma cruzi [2] = assay: (§2) GSK_TCAKS: pIC50 Trypanosoma cruzi Imaging: Infected Cells. […] Cells were then washed once with PBS before infection. T. cruzi trypomastigotes, collected at days 5 to 8 after infection from LLC-MK2 parasite infected cultures, were allowed to swim out for 4h at 37C from a centrifuged pellet (2,500 rpm/10 min/room temperature). Trypomastigotes were then collected and counted in a CASY Cell Counter. Trypomastigotes, in supplemented DMEM, were added to H9c2 cultures in a multiplicity of infection of 1 and incubated for 18 h. Cells were washed once with PBS before incubation of the infected H9c2 monolayer with trypsin (Life-Technologies) to detach cells from the flask. Cells were counted in a CASY Cell Counter using a 150 um capillary and their density set at 5 * 10^4 cells per mL in supplemented assay DMEM. Infected H9c2 were dispensed into 384-well poly-lysine coated assay plates at 50uL per well using a Multidrop Combi dispenser. After seeding them, the plates were incubated at 37C, 5% CO2 for 72h. Cultures were then fixed and stained by addition of 50 uL of a solution containing 8% formaldehyde and 4 uM DRAQ5 DNA dye (BioStatus, UK) per well. […] Five images were collected per well for reliable statistical analysis. Automated image analysis was performed with a script developed on Acapella High Content Imaging and Analysis Software (PerkinElmer). Output: percentage of infected cells per well as a second infection marker.; format: functional, organism-based, Rattus norvegicus; settings: H9c2, 4 h
NIH3T3 = assay: GSK_TCAKS: pIC50 NIH 3T3 cell line viability assay using luminiscence. Tissue culture surface treated assay plates (1536-well) were used. […] The 100% cells survival control was determined exposing the host-cells to a 0.5% DMSO concentration, whereas the 100% toxicity control was achieved by seeding the cells in presence of Amphotericin B at 50uM. Plates were incubated for four days at 37C, 5% CO2. The assay readout was developed by addition of 5uL of CellTiter-Glo Reagent following the manufacturer's instructions. Luminiscence was measured using a ViewLux.; format: functional, cell-based; settings: Mus musculus, NIH3T3, 96 h
Trypanosoma cruzi [3] = assay: GSK_TCAKS: pIC50 Trypanosoma cruzi viability assay using beta-GAL activity. This assay was run at single shot at 5uM compound concentration per well. The biological reagents consisted of NIH-3T3 host cells and trypomastigotes parasitic cells; both cell types were set to a 3.3 * 10^5 cells/mL dilution in assay DMEM by means of a CASY cell counter device using a 60um capillary. 6 uL of the mixture were dispensed per well (about 1 * 10^3 host-cells and 1 * 10^3 parasites) with a Multidrop Combi dispenser. […] In all wells, the percentage of DMSO never exceeded 0.5%. Plates incubated for four days at 37C, 5% CO2. The substrate used for the assay fluorescence intensity (FLINT) readout was resorufin-beta-D-galactopiranoside (Sigma-Aldrich) at 5uM per well. It was diluted in PBS supplemented with the soft detergent Igepal (Fluka).; format: functional, organism-based, Mus musculus; settings: Tulahuen, NIH3T3
[4] = system: Trypanosoma brucei brucei; assay: GSK_TCAKS: pIC50 Trypanosoma brucei viability assay using fluorescence intensity. Assay plates (1536-well) were prepared by dispensing 25nL of compound solution per well using an Echo acoustic dispenser (Labcyte).; format: functional, organism-based; settings: Lister 427, 2 h
[5] = biological target: Sterol 14-alpha demethylase (Trypanosoma cruzi (strain CL Brener), UniProt Q7Z1V1); assay: GSK_TCAKS: pIC50 CYP51 from Trypanosoma cruzi.; format: functional
[6] = system: Trypanosoma brucei brucei; assay: GSK_TCAKS: pIC50 Trypanosoma brucei viability assay using luminiscence. Assay plates (1536-well) were prepared. T. brucei cultures were harvested and counted in a CASY cell counter. A parasite suspension was prepared at a final concentration of 5 * 10^4 cells/mL in complete HMI9 medium and 6uL was dispensed to all wells containing compounds using a Multidrop Combi dispenser. 6uL of HMI9 media with 0.4% DMSO were dispensed to control columns. Plates were incubated for 24 h at 37C, 5% CO2 then tempered for 10 min at room temperature. ATP content was quantified by adding 4 uL of CellTiter-Glo Reagent (Promega) according to the manufacturer's instructions. Luminescence was measured using a ViewLux.; format: functional, organism-based; settings: Lister 427, CASY
Trypanosoma cruzi [7] = assay: GSK_TCAKS: pIC50 Trypanosoma cruzi Imaging: Amastigotes/Cell. […] Cells were then washed once with PBS before infection. T. cruzi trypomastigotes, collected at days 5 to 8 after infection from LLC-MK2 parasite infected cultures, were allowed to swim out for 4h at 37C from a centrifuged pellet (2,500 rpm/10 min/room temperature). Trypomastigotes were then collected and counted in a CASY Cell Counter. Trypomastigotes, in supplemented DMEM, were added to H9c2 cultures in a multiplicity of infection of 1 and incubated for 18 h. Cells were washed once with PBS before incubation of the infected H9c2 monolayer with trypsin (Life-Technologies) to detach cells from the flask. Cells were counted in a CASY Cell Counter using a 150 um capillary and their density set at 5 * 10^4 cells per mL in supplemented assay DMEM. Infected H9c2 were dispensed into 384-well poly-lysine coated assay plates at 50uL per well using a Multidrop Combi dispenser. After seeding them, the plates were incubated at 37C, 5% CO2 for 72h. Cultures were then fixed and stained by addition of 50 uL of a solution containing 8% formaldehyde and 4 uM DRAQ5 DNA dye (BioStatus, UK) per well. […] Five images were collected per well for reliable statistical analysis. Automated image analysis was performed with a script developed on Acapella High Content Imaging and Analysis Software (PerkinElmer). Output: number of amastigotes per cell as infection level measurement.; format: functional, organism-based, Rattus norvegicus; settings: H9c2, 4 h
Leishmania donovani [8] = assay: as §1, with “Amastigotes/Macrophages.” for “THP-1 Host Macrophages.”, “Average number of amastigotes per macrophage” for “THP-1”, “cell” for “cell count”; format: functional, organism-based, Homo sapiens; settings: THP-1
Leishmania donovani [9] = assay: GSK_TCAKS: pIC50 Leishmania donovani viability assay using fluorescence intensity. Assay plates (1536-well) were prepared by adding 30nL per well of compound. For single shot assay, the final compound concentration was 5uM. […] Briefly, eGFP LdBOB axenic amastigotes were harvested, fixed and counted in a CASY cell counter (Roche-Applied Science). A final concentration of 1.5 * 10^5 cells per well were prepared in amastigote media containing 500 U/mL penicillin/streptomycin (Invitrogen) and 6uL was dispensed to each experimental well using a Multidrop Combi dispenser (Thermo Scientific). 6uL of assay media was dispensed to control columns used as reference for 100% compound response. Following incubation for 72 h at 37C, 5% CO2, 2 uL of resazurin was added to each well at a final concentration of 0.5 mM in phosphate buffered saline (PBS) with IGEPAL (Sigma-Aldrich), 0.05% (v/v).; format: functional, organism-based
Trypanosoma cruzi [10] = assay: as §2, with “H2C9” for “Trypanosoma cruzi”, “H9c2 Host Cardiomyocytes.” for “Infected Cells.”, “Number” for “percentage”, “H9c2 Host Cardiomyocytes nuclei to determine drug-related cytotoxicity.” for “infected cells per well as a second infection marker.”; format: functional, organism-based, Rattus norvegicus; settings: H9c2, 4 h
Leishmania donovani [11] = assay: as §1, with “Infected” for “THP-1 Host”, “Percent of infected macrophage cells” for “THP-1 cell count”; format: functional, organism-based, Homo sapiens; settings: THP-1
[12] = GSK_TCAKS: pIC50 HepG2 human cell line viability assay using luminiscence. […] Seeding density was checked to ensure that new mono-layers were not more than 50% confluent at the time of harvesting. Cell suspension was added to 500 mL of the same medium at a final density of 1.2 * 10^5 cells/mL. This cell suspension was dispensed (25 uL, 3000 cells per well) into 384-well clear-bottom plates using a Multidrop Combi dispenser. Prior to addition of the cell suspension, the screening compounds (250 nL) were pre-dispensed into the plates with an Echo liquid handler. Plates were incubated for 48 h at 37C, 5% CO2. After incubation, plates equilibrated at room temperature for 30 min before proceeding to develop the luminescent signal. The signal developer, CellTiter-Glo Reagent, was allowed to equilibrate at room temperature for 30 min and added to the plates (25uL per well) using a Multidrop Combi dispenser. Plates were left for 10 min at room temperature for stabilization and then read using a ViewLux.; format: toxicity, cell-based

Sterol 14-alpha demethylase, sequence (Q7Z1V1 whole entry): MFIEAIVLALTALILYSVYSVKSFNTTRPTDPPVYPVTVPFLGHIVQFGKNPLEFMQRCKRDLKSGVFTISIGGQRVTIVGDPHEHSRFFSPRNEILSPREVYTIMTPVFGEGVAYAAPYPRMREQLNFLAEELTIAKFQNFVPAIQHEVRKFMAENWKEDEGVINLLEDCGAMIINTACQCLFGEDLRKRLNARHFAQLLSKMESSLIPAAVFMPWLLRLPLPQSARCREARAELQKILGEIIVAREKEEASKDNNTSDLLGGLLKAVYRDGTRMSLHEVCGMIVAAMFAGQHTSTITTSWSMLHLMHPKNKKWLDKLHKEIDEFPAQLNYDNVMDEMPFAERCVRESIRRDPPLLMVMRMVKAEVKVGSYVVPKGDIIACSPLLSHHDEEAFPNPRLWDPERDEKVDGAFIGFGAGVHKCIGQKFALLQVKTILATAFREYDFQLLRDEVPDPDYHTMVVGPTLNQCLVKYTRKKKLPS

SMILES | pIC50 (Leishmania donovani [1]) | pIC50 (Trypanosoma cruzi [2]) | pIC50 (NIH3T3) | pIC50 (Trypanosoma cruzi [3]) | pIC50 [4] | pIC50 [5] | pIC50 [6] | pIC50 (Trypanosoma cruzi [7]) | pIC50 (Leishmania donovani [8]) | pIC50 (Leishmania donovani [9]) | pIC50 (Trypanosoma cruzi [10]) | pIC50 (Leishmania donovani [11]) | IC50 at 48 h [12]
COc1ccc(-c2nc3ncccc3o2)cc1NC(=O)c1cccs1 | 4.70 | 5.60 | < 4.30 | 5.70 | 5.90 | < 4.00 | 5.60 | 5.70 | < 4.30 | 5.30 | < 4.30 | < 4.30 | > 100 µM
CCC(=O)Nc1ccc(-c2nc3ccc(Cl)cc3[nH]2)cc1 | < 4.30 | 5.80 | < 4.30 | 5.70 | 5.20 | < 4.00 | < 4.40 | 6.30 | < 4.30 | < 4.30 | < 4.30 | < 4.30 | > 100 µM
N#Cc1cc([N+](=O)[O-])ccc1NC1CCCCCC1 | < 4.30 | 5.70 | < 4.30 | 5.60 | 5.60 | < 4.00 | 5.50 | 5.90 | < 4.30 | < 4.30 | < 4.30 | < 4.30 | > 100 µM
Cc1nnnn1-c1cccc(C(=O)N2CCC[C@@]3(C)c4ncncc4CCC23)c1 (stereo partly drawn) | < 4.30 | 6.50 | < 4.30 | 6.20 | < 4.40 | 4.60 | < 4.40 | 6.50 | 5.20 | 6.40 | < 4.30 | < 4.30 | > 100 µM
C=CCOCC1Cn2nc([N+](=O)[O-])nc2O1 (stereo not drawn) | < 4.30 | 5.90 | < 4.30 | 6.30 | < 4.40 | < 4.00 | < 4.40 | 6.20 | < 4.30 | < 4.30 | < 4.30 | < 4.30 | > 100 µM
Cc1ccc(NC(=O)c2ccc(Cl)c(NC(=O)c3ccc([N+](=O)[O-])cc3)c2)cc1 | < 4.30 | 6.30 | 4.70 | 6.20 | 5.10 | < 4.00 | 4.80 | 6.70 | < 4.30 | < 4.30 | < 4.30 | < 4.30 | > 100 µM
C=CCn1nc([N+](=O)[O-])nc1Oc1ccc(Cl)cc1Cl | 4.40 | 6.60 | 4.30 | 6.60 | 4.70 | 4.70 | < 4.40 | 6.90 | 4.40 | < 4.30 | < 4.30 | < 4.30 | > 100 µM
Cc1c(C#N)c([N+](=O)[O-])nn1Cc1cccc(Cl)c1Cl | 4.80 | 7.00 | 4.40 | 6.70 | 4.80 | < 4.00 | 4.60 | 7.40 | 4.80 | < 4.30 | < 4.30 | < 4.30 | 79.4 µM
Cc1c(CNC(=O)c2ccc(Cn3cc(Cl)c([N+](=O)[O-])n3)cc2)cnn1C | < 4.30 | 5.80 | < 4.30 | 6.00 | 5.30 | < 4.00 | 5.00 | 6.10 | < 4.30 | < 4.30 | < 4.30 | < 4.30 | > 100 µM
Cc1c([N+](=O)[O-])c(C(=O)Nc2sc3c(c2C#N)CCC(C)C3)nn1C (stereo not drawn) | < 4.30 | 5.60 | 4.90 | 5.60 | < 4.40 | < 4.00 | < 4.40 | 5.80 | 4.80 | 4.60 | < 4.30 | 4.50 | > 100 µM
O=C(Nc1ccc(Br)cn1)c1ccc(Cn2cnc([N+](=O)[O-])n2)cc1 | < 4.30 | 6.90 | < 4.30 | 6.80 | 5.80 | < 4.00 | 5.50 | 7.10 | < 4.30 | < 4.30 | < 4.30 | < 4.30 | > 100 µM
CC1=NN(C(=O)CCn2cnc([N+](=O)[O-])n2)C(O)(C(F)(F)F)C1 (stereo not drawn) | < 4.30 | 5.20 | < 4.30 | 5.70 | < 4.40 | < 4.00 | < 4.40 | 5.90 | < 4.30 | < 4.30 | < 4.30 | < 4.30 | > 100 µM
O=C(c1cc2cc(Cl)ccc2[nH]1)N1CCCCC1c1cccnc1 (stereo not drawn) | 4.80 | 6.90 | 4.40 | 6.60 | 4.60 | 7.20 | 4.80 | 6.90 | 5.00 | 4.30 | 4.50 | 4.50 | 39.8 µM
O=S(=O)(c1ccccc1C(F)(F)F)N1CCN(Cc2ccc(-n3ccnc3)cc2)CC1 | 4.80 | 6.60 | < 4.30 | 6.60 | < 4.40 | 7.00 | < 4.40 | 6.70 | 4.60 | 5.20 | < 4.30 | < 4.30 | > 100 µM
CC1(Oc2cncc(Cl)c2)CCN(Cc2cc3ccccc3[nH]2)C1 (stereo not drawn) | 4.50 | 5.80 | 5.00 | 6.00 | < 4.40 | 5.00 | < 4.40 | 6.00 | 4.50 | < 4.30 | 5.00 | 4.70 | 31.6 µM
O=S(=O)(NCC(c1cccnc1)N1CCN(c2ccccc2F)CC1)c1ccc(F)cc1 (stereo not drawn) | < 4.30 | 6.70 | < 4.30 | 6.30 | 4.60 | 7.10 | < 4.40 | 6.70 | 5.40 | 5.40 | < 4.30 | < 4.30 | > 100 µM
